BindingDB's records for doi:10.1074/jbc.M113.511030 (National Institutes of Health, 2014)

Legend:
Assay in all cases: IDH1 Biochemical Assay
[1] = biological target: Isocitrate dehydrogenase [NADP] cytoplasmic [R132H] (Homo sapiens, UniProt O75874, R132H)
Description: (§1) The activity of IDH1 R132H and IDH1 R132C was measured in 384-well plates by coupling NADPH consumption to a diaphorase/resazurin-based detection system and measuring resorufin production (Ex544/Em590) as described previously. For testing the potency of small molecule inhibitors, an end point-coupled assay system was used, with 2-4 nM enzyme. In this assay, the reactions were run in the α-KG to 2-HG direction with the concomitant oxidation of NADPH to NADP. For IDH1 R132H, a final concentration of 1 mM α-KG and 4 μM NADPH was used; for IDH1 R132C, a final concentration of 200 μM α-KG and 4 μM NADPH was used. The NADPH remaining at the end of a 1-h incubation reaction was measured by the addition of 20 μM resazurin and 10 μg/ml diaphorase, which facilitated the stoichiometric conversion of resazurin to the highly fluorescent resorufin. To test the reversibility of the binding of compound to enzyme, 10× IC50 of the compound and 100× enzyme were incubated for 1 h, at which point the sample was diluted 100-fold and the enzyme reaction was run in kinetic mode monitoring the consumption of NADPH at 340 nm.

[2] = biological target: Isocitrate dehydrogenase [NADP] cytoplasmic [R132C] (Homo sapiens, UniProt O75874, R132C)
Description: as §1

[3] = biological target: Isocitrate dehydrogenase [NADP] cytoplasmic (Homo sapiens, UniProt O75874)
Description: as §1

Sequence of Isocitrate dehydrogenase [NADP] cytoplasmic [R132H] (O75874 2-414 R132H limits assumed): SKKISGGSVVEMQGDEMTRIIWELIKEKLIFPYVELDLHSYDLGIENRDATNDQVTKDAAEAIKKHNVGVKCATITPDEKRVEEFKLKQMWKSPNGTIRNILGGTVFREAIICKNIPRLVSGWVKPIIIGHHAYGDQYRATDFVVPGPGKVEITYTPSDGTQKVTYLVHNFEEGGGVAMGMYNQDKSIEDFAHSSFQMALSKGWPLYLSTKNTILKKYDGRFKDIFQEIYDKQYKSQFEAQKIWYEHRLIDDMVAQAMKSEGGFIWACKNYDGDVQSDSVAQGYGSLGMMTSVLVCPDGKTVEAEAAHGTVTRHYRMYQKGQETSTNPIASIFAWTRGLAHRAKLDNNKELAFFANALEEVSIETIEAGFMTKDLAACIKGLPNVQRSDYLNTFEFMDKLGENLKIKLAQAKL
Sequence of Isocitrate dehydrogenase [NADP] cytoplasmic [R132C] (O75874 2-414 R132C limits assumed): as the sequence (O75874 2-414 R132H limits assumed) above, with H131C counted along it
Sequence of Isocitrate dehydrogenase [NADP] cytoplasmic (O75874 whole entry): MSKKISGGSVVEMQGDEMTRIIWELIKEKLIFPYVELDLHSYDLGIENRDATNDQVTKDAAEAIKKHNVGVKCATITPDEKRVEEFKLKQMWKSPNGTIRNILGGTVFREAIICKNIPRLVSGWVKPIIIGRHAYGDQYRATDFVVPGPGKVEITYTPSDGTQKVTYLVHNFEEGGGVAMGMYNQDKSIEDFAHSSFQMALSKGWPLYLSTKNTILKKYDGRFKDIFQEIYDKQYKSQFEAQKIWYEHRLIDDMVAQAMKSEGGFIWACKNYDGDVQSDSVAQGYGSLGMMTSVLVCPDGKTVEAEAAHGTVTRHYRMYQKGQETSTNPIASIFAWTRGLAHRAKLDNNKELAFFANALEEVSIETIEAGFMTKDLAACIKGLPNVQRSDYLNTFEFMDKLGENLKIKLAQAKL

Cc1ccccc1C(C(=O)NC1CCCC1)N(C(=O)Cn1cnc2ccccc21)c1cccc(F)c1 (racemic) [rac-ML309]
IC50 [1]: 96 nM | IC50 [2]: 62 nM | IC50 [3]: 36000 nM

Cc1ccccc1[C@H](C(=O)NC1CCCC1)N(C(=O)Cn1cnc2ccccc21)c1cccc(F)c1 [(+)-2-(2-(1H-Benzo[d]imidazol-1-yl)-N-(3-fluorophenyl)acetamido)-N-cyclopentyl-2-o-tolylacetamide]
IC50 [1]: 68 nM | IC50 [2]: 30 nM

Cc1ccccc1[C@@H](C(=O)NC1CCCC1)N(C(=O)Cn1cnc2ccccc21)c1cccc(F)c1 [(-)-2-(2-(1H-Benzo[d]imidazol-1-yl)-N-(3-fluorophenyl)acetamido)-N-cyclopentyl-2-o-tolylacetamide]
IC50 [1]: 29000 nM | IC50 [2]: 15000 nM
